Key:
[1] = tested on: sptA promoter (PsptA), ScuR/SarF system; experiment: Luciferase (luxAB) promoter activity of PsptA with exogenous synthetic peptides; assay type: cell-based, Streptococcus salivarius HSISS4
Protocol: (§1) Overnight precultures were diluted at a final OD600 of 0.05. A volume of 300 μl of culture samples was incubated in the wells of a sterile covered white microplate with a transparent bottom (Greiner, Alphen a/d Rijn, The Netherlands) for 75 min at 37° C. and then supplemented with synthetic peptides (1 μM, except if otherwise stated) or DMSO, and xylose where required. Growth (OD600) and luciferase (Lux) activity (expressed in relative light units) was monitored at 10 min intervals during 24 h in a multi-wells plate reader (Hidex Sense, Hidex, Turku, Finland) as previously described (Fontaine et al., 2013).

[2] = tested on: slvX promoter (PslvX); experiment: Luciferase (luxAB) promoter activity of PslvX with synthetic peptides; assay type: cell-based, Streptococcus salivarius HSISS4
Protocol: as §1

[3] = tested on: comS promoter (PcomS); experiment: Luciferase (luxAB) promoter activity of PcomS with synthetic peptides; assay type: cell-based, Streptococcus salivarius HSISS4
Protocol: as §1

[4] = tested on: comX promoter (PcomX) and ComX-dependent promoters; experiment: Luciferase (luxAB) activity of PcomX and ComX-dependent late competence promoters; assay type: cell-based, Streptococcus salivarius HSISS4; settings: 1 μM; FIG. 9
Protocol: as §1

[5] = tested on: ScuR; experiment: Mobility shift assay (EMSA) of promoter probes with purified ScuR and synthetic peptide; assay type: binding, Streptococcus salivarius; settings: FIG. 4A
Protocol: All double-stranded DNA fragments (30 or 40 bp) were obtained from annealing of single-stranded Cy3-labelled (at 5′ end) and unlabeled oligonucleotides. Typically, a gel shift reaction (20 μl) was performed in a binding buffer (20 mM Tris-HCl pH 8.0, 150 mM NaCl, 1 mM EDTA, 1 mM DTT, 10% glycerol, 1 mg ml-1 BSA) and contained 150 ng labelled probe and […] StrepTag proteins. When necessary, […] of ComS peptides (unless otherwise stated) are added. The reaction is incubated at 37° C. for 10 min prior to loading of the samples on a native TBE 5% gel. The gel is next subjected to 80 V for approximately 1 h in TBE buffer. DNA complexes were detected by fluorescence on the Ettan DIGE Imager with bandpass excitation filters (nm): 540/25 (Cy3) or 635/30 (Cy5) and bandpass emission filters: 595/25 (Cy3) or 680/30 (Cy5) (GE Healthcare, Waukesha, WI).
The PCR-amplified scuR-StrepTag and gene sarF-StrepTag were cloned into the pBAD-comR-ST vector (see supplemental information). The ComR-StrepTag, ScuR-StrepTag and SarF-StrepTag recombinant proteins were overproduced in E. coli and purified as previously described (Fontaine et al., 2013) in standard native conditions on Strep-Tactin agarose beads (IBA).

[6] = tested on: S. salivarius producer strains; indicator strain Lactococcus lactis IL1403; experiment: Bacteriocin detection assay (spot-on lawn, multilayer); assay type: cell-based, Streptococcus salivarius; settings: FIG. 5B
Protocol: The spot-on lawn (multilayer) detection method was performed as followed: 10 μl of overnight cultures of producer strains were diluted in fresh M17G medium and grown to reach mid-log phase (OD600=˜0.5). In parallel, we casted plates with a bottom feeding layer (M17G 1.5% agar) supplemented with a synthetic peptide where required. Next, we mixed 100 μl of an overnight culture of Lactococcus lactis IL1403 (indicator strain) in pre-warmed soft M17G medium (0.3% agar) and casted it as a top layer. Finally, we incubated mid-log phase cultures for 30 minutes with the corresponding synthetic peptides and spotted 3 μl of the producer strains on the top layer. Plates were incubated overnight before analysis of the inhibition zones surrounding the producer colonies.

[7] = tested on: S. salivarius HSISS4 derivatives; experiment: Competence development (natural transformation frequency); assay type: cell-based, Streptococcus salivarius
Protocol: To induce competence, overnight CDMG precultures were diluted at a final OD600 of 0.05 in 300 μl (10 ml concerning the randomized peptide screen) of fresh CDMG and incubated 75 min at 37° C. Then, we added the pheromone sComS as well as DNA (overlapping PCRs or plasmids) and let the cells recover for 3 h at 37° C. before plating on M17G agar supplemented with antibiotics where required. Null-mutants were constructed by exchanging (double homologous recombination) the coding sequences (CDS) of target genes (sequence between start and stop codons) for either chloramphenicol or erythromycin resistance cassette. If stated, mutants were cleaned for the lox site-flanked resistance cassette, as previously described (Fontaine et al. Mol Microbiol 2010; 87:1113-1132). In case of deletion of multiple CDSs, the region between the start codon of the first CDS and the stop codon of the last CDS was deleted. Integration of the antibiotic resistance cassette at the right location was subsequently checked by PCR. The promoters of sptA genes was fused to the luxAB reporter genes and inserted with a chloramphenicol resistance cassette at the permissive tRNA threonine locus (HSISS4_r00061) by double homologous recombination. In case of ΔscuR and ΔsarF in-frame deletion, we used the two-step selection/counter-selection strategy previously described (Mignolet et al. Cell Rep 2018, 22:1627-1638). We transformed the wild-type strain with an overlapping PCR product composed of 4 fragments: (I) the upstream region of scuR or sarF genes, (II) the downstream region of scuR or sarF genes, (III) a cassette that includes the erythromycin resistance gene (erm) and a gene encoding the orotate transporter oroP, and finally (IV) the downstream region of scuR or sarF genes. We selected a first event of double recombination on medium supplemented with erythromycin. Next, we selected an intramolecular recombination between region (I) and (IV) that excises the erm-oroP cassette by growing cells on M17G supplemented with the toxic 5-fluoro-orotic acid (5-FOA) compound. In […] of oroP, 5-FOA is not able to cross the membrane and penetrate the cytoplasm where it is deleteriously incorporated in the nucleotide metabolic pathway (Overkamp et al., 2013). At final, we engineered an in-frame deletion mutant of scuR or sarF in which the first seven codons were fused to the last six codons without any cassette scar (see below for detailed cloning method).

[8] = WT background, dose response FIG. 3D
[9] = ΔscuR strain (SarF only), FIG. 3D

Substance: sBI7: synthetic peptide: last 8 amino acids of the clone BI7 peptide MIAILPFWLILG (sBI7)
- amplitude of PsptA response compared with PslvX and PcomS ([1]; WT background, FIG. 3D): highest amplitude
- peptide concentration to which PsptA is responsive [1, 8]: less than 1 nM
- activity of all promoters (PsptA, PslvX, PcomS) in ΔsarF compared to WT ([1]; ΔsarF strain, FIG. 3D): slightly up compared to the WT
- SarF-mediated PsptA response ([1]; ΔscuR strain, FIG. 3D): able to induce the SarF-mediated PsptA response
- induction of sptA, comS and slvX promoters in ΔscuR-sarF double mutant ([1]; ΔscuR-sarF, FIG. 3F): utterly erased
- peptide concentration to which PslvX is responsive [2, 8]: less than 1 nM
- PslvX activity upon sBI7 induction in ΔscuR [2, 9]: no activity in ΔscuR
- amplitude of PcomS response compared with PsptA and PslvX ([3]; WT background, FIG. 3D): lowest
- peptide concentration to which PcomS is responsive [3, 8]: less than 1 nM
- PcomS activity upon sBI7 induction in ΔscuR [3, 9]: no activity in ΔscuR
- activation of comX and late competence genes under direct ComX control [4]: cannot activate
- ScuR·sBI7 affinity for PcomS and PslvX in comparison to sComS-bound ComR [5]: appears weaker with a less stable complex
- peptide concentration from which ScuR shifts the PsptA probe ([5]; ScuR 4 μM, peptide 2:2 dilutions from 20 μM): ≥ 0.08 nM
- ScuR affinity for PcomS probe ([5]; with sBI7): weakest affinity
- ScuR affinity for PsptA probe ([5]; with sBI7): strongest one
- halo of inhibition around producer strain ([6]; WT strain, sBI7 concentration ranging from 1 nM to 1 μM, indicator L. lactis): small halo of inhibition
- halo of inhibition in mutant producer strains ([6]; single ΔscuR, double ΔscuR-sarF or Δslv5 strains): eradicated
- support of natural transformation ([7]; Table 6): ineffective to support natural transformation
- Competence development (transformation frequency) ([7]; Wild-type strain, ratio of transformants (chloramphenicol-resistant CFU) to total CFU count per 0.1 ug of linear DNA): ND (ND: not detected (<1.0E−08))
- Competence development (transformation frequency) ([7]; ΔsarF strain, ratio of transformants to total CFU count per 0.1 ug of linear DNA): ND (ND: not detected (<1.0E−08))
- Competence development (transformation frequency) ([7]; ΔscuR strain, ratio of transformants to total CFU count per 0.1 ug of linear DNA): ND (ND: not detected (<1.0E−08))

Reference: patent US12234299B2, “Peptides for inducing bacteriocin synthesis and methods to identify and/or select and/or optimize the same” (SYNGULON S.A., priority 2018, dated 2025)
